# Data from US4334019A, “Process for producing de(mycinosyloxy)tylosin” (Eli Lilly and Company, priority 1981, dated 1982).
# Experiments:
# [1] = tested on: Streptomyces fradiae E2724.1; assay: Antibiotic sensitivity (sensitivity discs), E2724.1; format: cell-based; conditions: discs: chloramphenicol 30 μg, erythromycin 15 μg, cephaloridine 30 μg, lincomycin 2 μg, polymyxin B 300 units, streptomycin 10 μg, tetracycline 30 μg, vancomycin 30 μg; note: key: -: resistance (no zones of inhibition); +: sensitivity (zones of inhibition); trace of sensitivity
# From the text: (§1) ^a Determined by using sensitivity discs padded onto seededagar
# [2] = tested on: Streptomyces fradiae NRRL 11271; assay: Antibiotic sensitivity (sensitivity discs), NRRL 11271; format: cell-based; conditions: discs: chloramphenicol 30 μg, erythromycin 15 μg, cephaloridine 30 μg, lincomycin 2 μg, polymyxin B 300 units, streptomycin 10 μg, tetracycline 30 μg, vancomycin 30 μg; note: key: -: resistance (no zones of inhibition); +: sensitivity (zones of inhibition); trace of sensitivity
# From the text: as §1
# [3] = Electrometric titration of DMOT (pKa); format: physicochemical; conditions: 66% aqueous dimethylformamide
# From the text: Electrometric titration of DMOT in 66% aqueous dimethylformamide indicates the presence of a titratable group with a pKa value of about 7.3.
# [4] = Solubility; format: physicochemical; conditions: free base
# [5] = tested on: Streptococcus pyogenes C203; assay: MIC, standard agar-dilution assay, Streptococcus pyogenes C203; format: cell-based
# [6] = tested on: Streptococcus pneumoniae Park I; assay: MIC, standard agar-dilution assay, Streptococcus pneumoniae Park I; format: cell-based
# [7] = tested on: Streptococcus sp. (Group D) 282; assay: MIC, standard agar-dilution assay, Streptococcus sp. (Group D) 282; format: cell-based
# [8] = tested on: Staphylococcus aureus 3055; assay: MIC, standard agar-dilution assay, Staphylococcus aureus 3055; format: cell-based
# [9] = tested on: Pasteurella multocida; assay: MIC, standard agar-dilution assay, Pasteurella multocida; format: cell-based
# [10] = tested on: Pasteurella hemolytica; assay: MIC, standard agar-dilution assay, Pasteurella hemolytica; format: cell-based
# [11] = tested on: Mycoplasma gallisepticum; assay: MIC, standard agar-dilution assay, Mycoplasma gallisepticum; format: cell-based; conditions: Mycoplasmoides gallisepticum
# [12] = tested on: Mycoplasma hyopneumoniae; assay: MIC, standard agar-dilution assay, Mycoplasma hyopneumoniae; format: cell-based; conditions: Mesomycoplasma hyopneumoniae
# [13] = tested on: Mycoplasma hyorhinis; assay: MIC, standard agar-dilution assay, Mycoplasma hyorhinis; format: cell-based
# [14] = tested on: Streptococcus pyogenes C203; assay: In vivo activity against experimental bacterial infection in mice (ED50); conditions: C203, sc, subcutaneous, two doses, bacterial challenge 268 X LD50, effective dose to protect 50% of the test animals
# Experimental: The DMOT compounds have shown in vivo antimicrobial activity against experimental bacterial infections. When two doses of test compound were administered to mice in experimental infections, the activity observed was measured as an ED50 value [effective dose in mg/kg to protect 50% of the test animals: see Warren Wick, et al., J. Bacteriol. 81, 233-235 (1961)].
# ^a Subcutaneous; mg/kg × 2
# [15] = tested on: gram-positive microorganisms and Mycoplasma species; assay: Growth inhibition of pathogenic organisms (general statement); format: cell-based
compound,measurement,setting,value
O=C(Cc1cccs1)N[C@@H]1C(=O)N2C(C(=O)[O-])=C(C[n+]3ccccc3)CS[C@H]12 [Cephaloridine],"Antibiotic sensitivity, E2724.1",[1],+
same,"Antibiotic sensitivity, NRRL 11271",[2],+
O=C(N[C@H](CO)[C@H](O)c1ccc([N+](=O)[O-])cc1)C(Cl)Cl [Chloramphenicol],"Antibiotic sensitivity, E2724.1",[1],+
same,"Antibiotic sensitivity, NRRL 11271",[2],+
"CCC1OC(=O)CC(O)C(C)C(OC2OC(C)C(OC3CC(C)(O)C(O)C(C)O3)C(N(C)C)C2O)C(CC=O)CC(C)C(=O)C=CC(C)=CC1C (stereo not shown) [DMOT, 23-de(mycinosyloxy)tylosin]",pKa,[3],~7.3
same,solubility in polar organic solvents,"[4]; most polar organic solvents, such as acetone, methanol, ethanol, dimethylformamide, chloroform and dimethyl sulfoxide",soluble
same,solubility in water,[4]; water,sparingly soluble
same,MIC,[5],0.25 µg/mL
same,MIC,[6],0.13 µg/mL
same,MIC,[7],0.5 µg/mL
same,MIC,[8],1 µg/mL
same,MIC,[9],6.25 µg/mL
same,MIC,[10],25 µg/mL
same,MIC,[11],0.097 µg/mL
same,MIC,[12],0.39 µg/mL
same,MIC,[13],0.78 µg/mL
same,ED50,[14],6.3 mg/kg
same,antibacterial activity (in words),[15],especially active against gram-positive microorganisms and Mycoplasma species
CC[C@H]1OC(=O)[C@H](C)[C@@H](O[C@H]2C[C@@](C)(OC)[C@@H](O)[C@H](C)O2)[C@H](C)[C@@H](O[C@@H]2O[C@H](C)C[C@H](N(C)C)[C@H]2O)[C@](C)(O)C[C@@H](C)C(=O)[C@H](C)[C@@H](O)[C@]1(C)O [Erythromycin],"Antibiotic sensitivity, NRRL 11271",[2],+
CCC[C@@H]1C[C@@H](C(=O)N[C@@H]([C@H]2O[C@H](SC)[C@H](O)[C@@H](O)[C@H]2O)[C@@H](C)O)N(C)C1 [Lincomycin],"Antibiotic sensitivity, E2724.1",[1],-
same,"Antibiotic sensitivity, NRRL 11271",[2],-
[H]/N=C(/N)N[C@H]1[C@H](O)[C@@H](O)[C@H](O[C@@H]2O[C@@H](C)[C@](O)(C=O)[C@H]2O[C@@H]2O[C@@H](CO)[C@H](O)[C@@H](O)[C@@H]2NC)[C@@H](N/C(N)=N\[H])[C@@H]1O [Streptomycin],"Antibiotic sensitivity, E2724.1",[1],+
same,"Antibiotic sensitivity, NRRL 11271",[2],+
CN(C)[C@@H]1C(O)=C(C(N)=O)C(=O)[C@@]2(O)C(O)=C3C(=O)c4c(O)cccc4[C@@](C)(O)[C@H]3C[C@@H]12 [Tetracycline],"Antibiotic sensitivity, E2724.1",[1],+
same,"Antibiotic sensitivity, NRRL 11271",[2],+
CN[C@H](CC(C)C)C(=O)N[C@H]1C(=O)N[C@@H](CC(N)=O)C(=O)N[C@H]2C(=O)N[C@H]3C(=O)N[C@H](C(=O)N[C@H](C(=O)O)c4cc(O)cc(O)c4-c4cc3ccc4O)[C@H](O)c3ccc(c(Cl)c3)Oc3cc2cc(c3O[C@@H]2O[C@H](CO)[C@@H](O)[C@H](O)[C@H]2O[C@H]2C[C@](C)(N)[C@H](O)[C@H](C)O2)Oc2ccc(cc2Cl)[C@H]1O [Vancomycin],"Antibiotic sensitivity, E2724.1",[1],+
same,"Antibiotic sensitivity, NRRL 11271",[2],+
"CCC1OC(=O)CC(O)C(C)C(OC2OC(C)C(OC3CC(C)(O)C(O)C(C)O3)C(N(C)C)C2O)C(CCO)CC(C)C(=O)C=CC(C)=CC1C (stereo not shown) [dihydro-DMOT, 20-dihydro-23-de(mycinosyloxy)tylosin]",antibacterial activity (in words),[15],especially active against gram-positive microorganisms and Mycoplasma species
